Data reported in ChEMBL document CHEMBL4130627, “Prodrugs of the Phosphoribosylated Forms of Hydroxypyrazinecarboxamide Pseudobase T-705 and Its De-Fluoro Analogue T-1105 as Potent Influenza Virus Inhibitors” (J Med Chem, 2018).

Experiments:
Assay in all cases: microbe, parasite or virus in culture
[1] = tested on: Influenza A virus; conditions: MDCK, 72 h
[2] = tested on: Influenza A virus; conditions: MDCK, 72 h; remark: listed apart in the source
[3] = tested on: Influenza B virus; conditions: Ned/537/05, MDCK, 72 h
[4] = tested on: Influenza B virus; conditions: Ned/537/05, MDCK, 72 h; remark: listed apart in the source

SMILES | EC50 [1] [µM] | EC50 [2] [µM] | EC50 [3] [µM] | EC50 [4] [µM]
NC(=O)c1nc(Br)cnc1O | > 250 | > 250 | 63 | > 250
NC(=O)c1nccnc1O | > 250 | > 250 | > 250 | > 250
CCCCCCCCCCCCCCC(=O)Oc1ccc(COP(=O)(OCc2ccc(OC(=O)CCCC)cc2)OP(=O)(O)OC[C@H]2O[C@@H](n3cc(F)nc(C(N)=O)c3=O)[C@H](O)[C@@H]2O)cc1.CCN(CC)CC (stereo partly specified) | 6.6 | 8.8 | 2.8 | 3.4
CCCCCCCCCCCCCCC(=O)Oc1ccc(COP(=O)(OCc2ccc(OC(=O)CCCC)cc2)OP(=O)(O)OP(=O)(O)OC[C@H]2O[C@@H](n3ccnc(C(N)=O)c3=O)[C@H](O)[C@@H]2O)cc1.CCN(CC)CC.CCN(CC)CC (stereo partly specified) | 5.6 | 5.4 | 1.5 | 2.6
Cc1cccc2c1OP(=O)(OC[C@H]1O[C@@H](n3ccnc(C(N)=O)c3=O)[C@H](O)[C@@H]1O)OC2 (stereo partly specified) | 256 | 368 | 106 | 200
NC(=O)c1nc(Br)cn([C@@H]2O[C@H](CO)[C@@H](O)[C@H]2O)c1=O | > 250 | > 250 | 170 | > 250
CCCCCCCCCC(=O)Oc1ccc(COP(=O)(OCc2ccc(OC(=O)CCCCCCCCC)cc2)OP(=O)(O)OP(=O)(O)OC[C@H]2O[C@@H](n3ccnc(C(N)=O)c3=O)[C@H](O)[C@@H]2O)cc1.CCN(CC)CC.CCN(CC)CC | 2.6 | 4.5 | 1 | 1.9
NC(=O)c1nccn([C@@H]2O[C@H](CO)[C@@H](O)[C@H]2O)c1=O | 53 | 51 | 19 | 20
NC(=O)c1ncn([C@@H]2O[C@H](CO)[C@@H](O)[C@H]2O)n1 [RIBAVIRIN] | 5 | 5.8 | 1.5 | 
CCCCCCCCCC(=O)Oc1ccc(COP(=O)(OCc2ccc(OC(=O)CCCCCCCCC)cc2)OP(=O)(O)OC[C@H]2O[C@@H](n3ccnc(C(N)=O)c3=O)[C@H](O)[C@@H]2O)cc1.CCN(CC)CC | 1.3 | 0.97 | 0.39 | 0.55
NC(=O)c1nc(F)cnc1O | > 250 | > 250 | > 250 | > 250
CCCCCCCCCCCCCCC(=O)Oc1ccc(COP(=O)(OCc2ccc(OC(=O)CCCC)cc2)OP(=O)(O)OC[C@H]2O[C@@H](n3ccnc(C(N)=O)c3=O)[C@H](O)[C@@H]2O)cc1.CCN(CC)CC (stereo partly specified) | 1.5 | 1.4 | 0.53 | 0.66
CC(=O)O[C@@H]1[C@H](OC(C)=O)[C@@H](COP2(=O)OCc3cccc(C)c3O2)O[C@H]1n1ccnc(C(N)=O)c1=O (stereo partly specified) | > 400 | > 400 | 177 | > 400
